Experimental data from patent publication US20170291905A1, “ARGININE […] INHIBITORS AND USES THEREOF” (Epizyme, Inc., priority 2014, published 2017).

The compounds below were run against T1, PRMT1 (Homo sapiens, UniProt Q99873) (assay: RKO methylation assay, In Cell Western (ICW) for mono-methyl arginine and DNA content). Settings: RKO cells, 72 hours, mono-methyl arginine signal normalised to DRAQ5, percent activation.
T1 construct: host or cells: RKO cells
Format: cell-based
Text: RKO Methylation Assay RKO adherent cells were purchased from ATCC (American Type Culture Collection), Manassas, Va., USA. DMEM/Glutamax medium, penicillin-streptomycin, heat inactivated fetal bovine serum, 0.05% trypsin and D-PBS were purchased from Life Technologies, Grand Island, N.Y., USA. Odyssey blocking buffer, 800CW goat anti-rabbit IgG (H+L) antibody, and Licor Odyssey infrared scanner were purchased from Licor Biosciences, Lincoln, Nebr., USA. Mono-methyl arginine antibody was purchased from Cell Signaling Technology, Danvers, Mass., USA. Methanol was purchased from VWR, Franklin, Mass., USA. 10% Tween 20 was purchased from KPL, Inc., Gaithersburg, Md., USA. DRAQ5 was purchased from Biostatus Limited, Leicestershire, UK. RKO adherent cells were maintained in growth medium (DMEM/Glutamax medium supplemented with 10% v/v heat inactivated fetal bovine serum and 100 units/mL penicillin-streptomycin) and cultured at 37° C. under 5% CO2. Cell Treatment, in Cell Western (ICW) for Detection of Mono-Methyl Arginine and DNA Content. RKO cells were seeded in assay medium at a concentration of 20,000 cells per mL to a poly-D-lysine coated 384 well culture plate (BD Biosciences 356697) with 50 μL per well. Compound (100 nL) from a 96-well source plate was added directly to 384 well cell plate. Plates were incubated at 37° C., 5% CO2 for 72 hours. After three days of incubation, plates were brought to room temperature outside of the incubator for ten minutes and blotted on paper towels to remove cell media. 50 μL of ice cold 100% methanol was added directly to each well and incubated for 30 min at room temperature. After 30 min, plates were transferred to a Biotek EL406 plate washer and washed 2 times with 100 μL per well of wash buffer (1×PBS). Next 60 μL per well of Odyssey blocking buffer (Odyssey Buffer with 0.1% Tween 20 (v/v)) were added to each plate and incubated 1 hour at room temperature. Blocking buffer was removed and 20 μL per well of primary antibody was added (mono-methyl arginine diluted 1:200 in Odyssey buffer with 0.1% Tween 20 (v/v)) and plates were incubated overnight (16 hours) at 4° C. Plates were washed 5 times with 100 μL per well of wash buffer. Next 20 μL per well of secondary antibody was added (1:200 800CW goat anti-rabbit IgG (H+L) antibody, 1:1000 DRAQ5 (Biostatus limited) in Odyssey buffer with 0.1% Tween 20 (v/v)) and incubated for 1 hour at room temperature. The plates were washed 5 times with 100 μL per well wash buffer then 2 times with 100 μL per well of water. Plates were allowed to dry at room temperature then imaged on the Licor Odyssey machine which measures integrated intensity at 700 nm and 800 nm wavelengths. Both 700 and 800 channels were scanned. […] Each plate included fourteen control wells of DMSO only treatment (minimum activation) as well as fourteen control wells for maximum activation treated with 20 μM of a reference compound. The average of the ratio values for each control type was calculated and used to determine the percent activation for each test well in the plate. Reference compound was serially diluted three-fold in DMSO for a total of nine test concentrations, beginning at 20 μM. Percent activation was determined and EC30 curves were generated using triplicate wells per concentration of compound.

T1 sequence (Q99873 whole entry): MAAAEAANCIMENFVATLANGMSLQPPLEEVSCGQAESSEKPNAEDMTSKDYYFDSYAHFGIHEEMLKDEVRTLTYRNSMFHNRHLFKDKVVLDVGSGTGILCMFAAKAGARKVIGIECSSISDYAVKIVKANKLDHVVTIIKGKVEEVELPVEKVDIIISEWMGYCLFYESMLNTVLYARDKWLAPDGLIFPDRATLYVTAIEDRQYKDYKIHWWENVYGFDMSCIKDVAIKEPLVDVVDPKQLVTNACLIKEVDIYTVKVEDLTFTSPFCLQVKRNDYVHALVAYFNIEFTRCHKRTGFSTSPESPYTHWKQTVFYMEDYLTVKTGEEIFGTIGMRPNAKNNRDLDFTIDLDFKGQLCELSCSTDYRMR

In order of rising “PRMT1 RGG ICW EC30” value:
1. CN(C)CCN(C)Cc1c[nH]nc1[C@H]1CC[C@@]2(CC1)CC(C)(C)CO2 [compound 42, N1-((3-((5S,8S)-3,3-dimethyl-1-oxaspiro[4.5]decan-8-yl)-1H-pyrazol-4-yl)methyl)-N1,N2,N2-trimethylethane-1,2-diamine]  51.41 nM
2. CNCCN(C)Cc1c[nH]nc1C1CCC(COCC2CC2)(COCC2CC2)CC1 [compound 41, N1-((3-(4,4-bis((cyclopropylmethoxy)methyl)cyclohexyl)-1H-pyrazol-4-yl)methyl)-N1,N2-dimethylethane-1,2-diamine]  67.48 nM
3. CC[C@H]1CC[C@@H](c2n[nH]cc2CN(C)CCNC)CC1 [compound 1]  83.01 nM
4. CNCCN(C)Cc1ccnn1[C@H]1CC[C@@]2(CC1)CC(C)(C)CO2 [compound 49, N1-((1-((5s,8s)-3,3-dimethyl-1-oxaspiro[4.5]decan-8-yl)-1H-pyrazol-5-yl)methyl)-N1,N2-dimethylethane-1,2-diamine]  111.3 nM
5. CNCCN(C)Cc1c[nH]nc1C1=CCC2(CC1)CC(C)(C)CO2 (centres unmarked) [compound 46, N1-((3-(3,3-dimethyl-1-oxaspiro[4.5]dec-7-en-8-yl)-1H-pyrazol-4-yl)methyl)-N1,N2-dimethylethane-1,2-diamine]  185.1 nM
6. CCC1(CC)C[C@]2(CC[C@H](c3n[nH]cc3CN(C)CCNC)CC2)NC1=O [compound 47, (5s,8s)-3,3-diethyl-8-(4-((methyl(2-(methylamino)ethyl)amino)methyl)-1H-pyrazol-3-yl)-1-azaspiro[4.5]decan-2-one]  367.1 nM
7. CNCCN(C)Cc1c[nH]nc1C1CCC(COCCC2CCOCC2)(COCCC2CCOCC2)CC1 [compound 40]  458.5 nM
8. CN(C)CCN(C)Cc1c[nH]nc1[C@H]1CC[C@]2(CC1)CC(C)(C)CO2 [compound 43, N1-((3-((5r,8r)-3,3-dimethyl-1-oxaspiro[4.5]decan-8-yl)-1H-pyrazol-4-yl)methyl)-N1,N2,N2-trimethylethane-1,2-diamine]  622.8 nM
9. CCOCCOCC1(COCCOCC)CCC(c2n[nH]cc2CN(C)CCNC)CC1 [compound 39, N1-((3-(4,4-bis((2-ethoxyethoxy)methyl)cyclohexyl)-1H-pyrazol-4-yl)methyl)-N1,N2-dimethylethane-1,2-diamine]  1388 nM

In the case of `CCC1(CC)C[C@]2(CC[C@@H](c3n[nH]cc3CN(C)CCNC)CC2)NC1=O` [compound 48, (5r,8r)-3,3-diethyl-8-(4-((methyl(2-(methylamino)ethyl)amino)methyl)-1H-pyrazol-3-yl)-1-azaspiro[4.5]decan-2-one], the “PRMT1 RGG ICW EC30” value is reported as over 5000 nM.
With `CNCCN(C)Cc1c[nH]nc1C1CCC(CO)(CO)CC1` [compound 44, (4-(4-((methyl(2-(methylamino)ethyl)amino)methyl)-1H-pyrazol-3-yl)cyclohexane-1,1-diyl)dimethanol] the “PRMT1 RGG ICW EC30” value was over 5000 nM.
